Measurements reported in patent publication US8501792B2, “Treating cancer with desthiazolyl ritonavir” (priority 2008, dated 2013).

Tested on: Purified mammalian Hsp90
Experiment: Hsp90 binding on CM-5 BIAcore chip (surface plasmon resonance)
Excerpt: Inhibition of Hsp90 can be evaluated by surface plasmon resonance studies of a compound of formula I, using a CM-5 Biacore chip on which Hsp90 (Stressgen, Ann Arbor) has been immobilized. This method can also be used to evaluate the chaperoning activity of a compound of formula I by evaluation of luciferase refolding. See Examples 4 and 9.
Purified mammalian Hsp90 was attached to a CM-5 BIAcore chip through an NHS ester linkage. After attachment of the Hsp90 and blocking the chip with BSA, M1 drug or a 17-AAG control was circulated through a microfluidic circuit and change in refractive index was measured by quantification of the RU value for each drug concentration. In the case of the 17-AAG control the binding was saturable and based on the kon and koff measurements, the KD was estimated to be in the 1 microM range. […] This means that there are significant differences in the binding of M-1 and may indicate alteration of the Hsp90 structure.

Q: Which “binding to Hsp90, saturability” value (RU value versus drug concentration, FIG. 11) does the source give for `C=CCNC1=C2C[C@@H](C)C[C@H](OC)[C@H](O)[C@@H](C)/C=C(\C)[C@H](OC(N)=O)[C@@H](OC)/C=C\C=C(/C)C(=O)NC(=CC1=O)C2=O` [17-AAG] here?
A: Its value is “saturable”.

Q: What about the Kd (estimated from kon and koff measurements) of the same compound?
A: Its Kd is ~1 µM.
